The record followed here is patent US12351571B2, “Substituted quinoxaline compounds as inhibitors of FGFR tyrosine kinases” (ARRAY BIOPHARMA INC., priority 2018, dated 2025).

One assay has as its target FGFR3 (Homo sapiens (Human), UniProt P22607). Nature of the assay: FGFR Enzyme Activity Assay (LanthaScreen TR-FRET), FGFR3. The settings on record: 25 μM ATP, 10 minute incubation; read-out: FGFR3 Enz FRET IC50. The class given is biochemical. In general terms: TR-FRET usually uses a lanthanide donor and a delayed reading to cut background.
In a further assay the target is FGFR1 (Homo sapiens (Human), UniProt P11362). Nature of the assay: LC/MS FGFR1 kobs assay (covalent modification). The class given is biochemical. The settings on record: 500 nM FGFR1, 3 μM compound.
Chain of FGFR1 (P11362 458-765): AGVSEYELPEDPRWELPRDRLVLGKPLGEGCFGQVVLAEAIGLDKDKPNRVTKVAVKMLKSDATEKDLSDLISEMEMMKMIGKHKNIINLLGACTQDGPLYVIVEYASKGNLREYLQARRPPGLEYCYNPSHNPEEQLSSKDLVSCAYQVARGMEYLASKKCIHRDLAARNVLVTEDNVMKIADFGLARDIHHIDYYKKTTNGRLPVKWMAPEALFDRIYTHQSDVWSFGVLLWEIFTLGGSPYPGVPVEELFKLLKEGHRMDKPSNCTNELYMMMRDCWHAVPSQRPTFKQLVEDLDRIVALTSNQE
In a further assay the target is human wild type FGFR1 (Homo sapiens (Human), UniProt P11362). Nature of the assay: FGFR1 pERK Cell Assay. The class given is cell-based. The settings on record: HEK-293 cells, 1 hour compound, 100 ng/ml human FGF-acidic; maximum concentration 5 μM.
Chain of human wild type FGFR1 (P11362 22-822): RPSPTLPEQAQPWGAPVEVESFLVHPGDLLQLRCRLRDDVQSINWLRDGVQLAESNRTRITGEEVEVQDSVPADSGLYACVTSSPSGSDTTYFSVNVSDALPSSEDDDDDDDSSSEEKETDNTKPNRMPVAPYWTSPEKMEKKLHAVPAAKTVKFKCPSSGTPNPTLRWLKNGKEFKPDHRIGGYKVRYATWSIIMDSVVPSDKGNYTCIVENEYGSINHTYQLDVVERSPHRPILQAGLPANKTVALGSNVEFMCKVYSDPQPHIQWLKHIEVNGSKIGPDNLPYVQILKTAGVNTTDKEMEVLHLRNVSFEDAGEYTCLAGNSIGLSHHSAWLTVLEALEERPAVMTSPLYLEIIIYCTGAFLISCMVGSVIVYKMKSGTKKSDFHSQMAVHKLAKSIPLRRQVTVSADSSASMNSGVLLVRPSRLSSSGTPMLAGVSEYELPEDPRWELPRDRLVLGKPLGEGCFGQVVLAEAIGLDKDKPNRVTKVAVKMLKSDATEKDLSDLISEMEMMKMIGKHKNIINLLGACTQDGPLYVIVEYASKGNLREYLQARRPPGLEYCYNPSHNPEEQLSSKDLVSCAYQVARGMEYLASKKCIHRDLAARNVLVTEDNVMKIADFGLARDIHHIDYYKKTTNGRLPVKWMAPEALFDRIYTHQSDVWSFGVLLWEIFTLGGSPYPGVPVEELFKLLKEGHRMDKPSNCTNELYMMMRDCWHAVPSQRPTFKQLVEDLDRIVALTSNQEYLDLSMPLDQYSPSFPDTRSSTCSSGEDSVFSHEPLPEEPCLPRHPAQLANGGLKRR
Another assay has as its target dephosphorylated FGFR1 (Homo sapiens (Human), UniProt P11362). Nature of the assay: FGFR Enzyme Binding Assay (HTRF tracer displacement), FGFR1. The following applies: 5 nM dephosphorylated FGFR1, 60 minute incubation at 22° C.; read-out: FGFR1 Enz Binding IC50.

Chain of FGFR3 (P22607 397-806): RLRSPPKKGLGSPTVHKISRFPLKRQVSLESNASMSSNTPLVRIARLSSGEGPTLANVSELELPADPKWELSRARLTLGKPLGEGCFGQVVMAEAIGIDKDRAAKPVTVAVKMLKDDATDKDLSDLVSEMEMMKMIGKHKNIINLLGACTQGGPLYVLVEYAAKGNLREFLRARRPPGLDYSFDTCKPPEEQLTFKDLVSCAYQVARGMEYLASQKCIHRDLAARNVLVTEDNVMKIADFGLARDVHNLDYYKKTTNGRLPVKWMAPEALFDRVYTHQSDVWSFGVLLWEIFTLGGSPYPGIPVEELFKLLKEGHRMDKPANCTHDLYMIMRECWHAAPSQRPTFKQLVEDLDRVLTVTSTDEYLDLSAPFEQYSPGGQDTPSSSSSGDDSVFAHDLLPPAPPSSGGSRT
Chain of dephosphorylated FGFR1 (P11362 458-765): as the sequence (P11362 458-765) above

Broadly, the IC50 is the point on the concentration scale where inhibition reaches its midpoint. Regarding `C=CC(=O)N1CC(C(=O)N2CC[C@@H](n3cc(-c4cnc5ccc(Nc6cc(OC)cc(OC)c6)cc5n4)cn3)C2)C1` [Example 21, (R)-1-(3-(3-(4-(7-((3,5-dimethoxyphenyl)amino)-quinoxalin-2-yl)-1H-pyrazol-1-yl)pyrrolidine-1-carbonyl)azetidin-1-yl)prop-2-en-1-one], the IC50 came out at 0.037 µM on FGFR3, 1.89 µM against human wild type FGFR1 and 0.038 µM at dephosphorylated FGFR1. Besides, the “FGFR1 Enz kobs” value on FGFR1 worked out at 0.00106 min⁻¹.

Consider `C=CC(=O)N1CC(CN2CCC(n3cc(-c4cnc5ccc(Nc6cc(OC)cc(OC)c6)cc5n4)cn3)CC2)(OC)C1` [Example 29, 1-(3-((4-(4-(7-((3,5-dimethoxyphenyl)amino)quinoxalin-2-yl)-1H-pyrazol-1-yl)piperidin-1-yl)methyl)-3-methoxyazetidin-1-yl)prop-2-en-1-one], for which the IC50 was 0.04 µM at FGFR3, 0.206 µM against human wild type FGFR1 and 0.05 µM at dephosphorylated FGFR1. Further, on FGFR1, the “FGFR1 Enz kobs” value was 0.0025 min⁻¹.
